Results reported in ChEMBL document CHEMBL1147125, “Microbial transformation of (-)-guaiol and antibacterial activity of its transformed products” (2007).

Key:
Bacillus subtilis = test: Antibacterial activity against Bacillus subtils at 100 ug/100 uL after 24 hrs; type: functional
Pseudomonas aeruginosa = test: Antibacterial activity against Pseudomonas aeruginosa at 100 ug/100 uL after 24 hrs; type: functional
Shigella flexneri = test: Antibacterial activity against Shigella flexneri at 100 ug/100 uL after 24 hrs; type: functional
Salmonella typhi = test: Antibacterial activity against Salmonella typhi at 100 ug/100 uL after 24 hrs; type: functional, Salmonella enterica subsp. enterica serovar Typhi
Staphylococcus aureus = test: Antibacterial activity against Staphylococcus aureus at 100 ug/100 uL after 24 hrs; type: functional
Escherichia coli = test: Antibacterial activity against Escherichia coli at 100 ug/100 uL after 24 hrs; type: functional

Row | SMILES | inhibition zone (IZ) (Bacillus subtilis) | inhibition zone (IZ) (Pseudomonas aeruginosa) | inhibition zone (IZ) (Shigella flexneri) | inhibition zone (IZ) (Salmonella typhi) | inhibition zone (IZ) (Staphylococcus aureus) | inhibition zone (IZ) (Escherichia coli)
1 | C[C@H]1CC[C@@H](C(C)(C)O)C(=O)C2=C1CC[C@@H]2C | 11 mm | 13 mm | 10 mm | – | – | –
2 | C[C@@H]1C2=CC[C@H](C)[C@@H]2C[C@H](C(C)(C)O)C[C@@H]1O | – | 20 mm | – | 16 mm | – | –
3 | C[C@@H]1C2=C(C[C@H](C(C)(C)O)C[C@H]1O)[C@@H](C)[C@@H](O)C2 | – | 17 mm | – | 15 mm | 20 mm | –
4 | C[C@H]1CC[C@@H](C(C)(C)O)C[C@@H]2C1=CC(=O)[C@@H]2C | 11 mm | 13 mm | – | – | – | –
5 | C[C@@H]1[C@@H]2C[C@H](C(C)(C)O)CC[C@H](C)C2=C[C@@H]1O | – | 20 mm | – | 15 mm | – | –
6 | C[C@H]1CC[C@@H](C(C)(C)O)CC2=C1CC[C@@H]2C [GUAIOL] | 15 mm | 17 mm | 17 mm | 24 mm | – | 16 mm
7 | C[C@@H](O)[C@H]1C(=O)N2C(C(=O)O)=C(SCCNC=N)C[C@H]12 [IMIPENEM ANHYDROUS] | 33 mm | 24 mm | 27 mm | 25 mm | 33 mm | 30 mm
